How the values were obtained:
human peroxidasin [1] = target: T1, human peroxidasin (Homo sapiens, UniProt Q92626); test: biochemical
Procedure: (§1) (FIG. 8A) Matrix pellets isolated from KI-treated PFHR9 cell culture were extensively washed into 10 mM phosphate buffer (pH 7.4) supplemented with 100 mM KF to maintain ionic strength. Potassium salts of Cl— or Br— were added in indicated amounts. 1 hr reactions at 37° C. were initiated by addition of H2O2 to 1 mM and stopped by freezing at −20° C. […] Reagent KCl was commercially obtained and unaltered prior to analysis. 100 mM solutions were made with 18MΩ deionized water. (FIG. 8C) Coomassie blue stained gel of collagenase digested PFHR-9 matrix reaction assay. Reaction buffered contained 10 mM phosphate buffer (pH 7.4), 100 mM Br-Free or Commercially obtained reagent grade KCl, as well as 1 mM H2O2 and 200 μM PHG where appropriate. […] Reactions were run for 10 minutes at 37° C. with 10 μM H2O2 as the terminal oxidant. Dose-response curve run in the presence of 1× Br-Free PBS. Reactions were quenched with 0.2 mg/ml Catalase, 20 mM Methionine, and 1 mM PHG. EC50 value±95% C.I. from two independent experiments with each data point plotted and fit.
(§2) HEK293 cells stably transfected with the human peroxidasin coding sequence27 were grown to confluency, and the medium was changed to serum-free DMEM/F12 plus 5 μM hematin plus 5 mM sodium butyrate. […]

human peroxidasin [2] = target: T1, human peroxidasin; conditions: compared with reagent-grade PBS (FIG. 8D)
Procedure: as §1, §2

[3] = system: Drosophila melanogaster w1118; conditions: in vivo
Procedure: FIGS. 11A-C. […] WT Eggs from 3 day Br-depleted and Br-Added females were collected and transferred to new 35 mm culture dishes filled with 3 ml of vitamin and mineral spiked phytagel as the semi-solid support. 100 μL of Yeast paste±100 μM Br—(200 mg yeast/500 μL ddH2O) was added to the center of each dish. Larvae were transferred to fresh dishes and counted every 24-36 hours. WT flies were reared in the presence of 80 mM total Br-Free NaCl. For Br-Added conditions, both the phytagel and yeast paste were spiked with 100 μM NaBr to ensure constant and consistent exposure. Adults were fed identical food as part of the depletion regime. PxnF07229 homozygous larvae were separated from heterozygous larvae and collected 48 hours after hatching on a Br-Free vs Br-Added plates from parents fed a standard diet. After transfer to these fresh Br-experimental diet plates, they were transferred and counted similarly to the WT larvae under normal 20 mM NaCl conditions. The experimental cohorts [Br-Free (n=34), Br-Added (n=40), Br-Free PxnF07229 (n=14), and Br-Added PxnF07229 (n=19)] were followed until death or 2-days after eclosion of the last fly in the cohort. […] Scale bars in the insets represent 200 μm, and in the whole pictures 500 μm. The image of PxnF07229 larvae is from a Br-Added experimental diet. (FIG. 11C) Representative pictures of the corresponding gut dissections to FIG. 11B. Scale bars are 500 μm.
(FIG. 17A) Generational Br-depletion scheme (FIG. 17B). Generation 1 survival and time-to-development curves for w^1118 flies on the standard diet vs experimental diets. Embryos from mothers fed a standard diet were placed on the indicated diet, and progeny were scored every 24 hours. […] Data plotted as the group median±interquartile range. N=30 for each group. […] (FIG. 17C) Generation 2 developmental survival on experimental diets. n>40 for each cohort. Tested by Log-Rank test. (FIG. 17D) Percentage of eggs (mean+/−95% C.I.) completing embryogenesis from mothers reared on Br-free^DEP or Br-added^DEP diets for […]. In the Br-free^DEP experimental group, mothers were fed Br-free synthetic diet containing 80 mM total NaCl (Br-free^DEP) for 3 days prior to egg collection. The Br-added^DEP was treated in the same manner except that 100 μM NaBr was added to all food components of the Br-free^DEP synthetic diet. […] Analyzed by the Mann-Whitney U test. (FIG. 17E) Survival curve for w^1118 flies under Br-free^DEP or Br-added^DEP dietary conditions. […] Associated larval Br-content was measured by EINAA. Bonds/hexamer were calculated from the Western blot. […] BMs from 15 independent sections for each group were evaluated for thickness and the histograms plotted. […]

T1 sequence (Q92626 27-1479): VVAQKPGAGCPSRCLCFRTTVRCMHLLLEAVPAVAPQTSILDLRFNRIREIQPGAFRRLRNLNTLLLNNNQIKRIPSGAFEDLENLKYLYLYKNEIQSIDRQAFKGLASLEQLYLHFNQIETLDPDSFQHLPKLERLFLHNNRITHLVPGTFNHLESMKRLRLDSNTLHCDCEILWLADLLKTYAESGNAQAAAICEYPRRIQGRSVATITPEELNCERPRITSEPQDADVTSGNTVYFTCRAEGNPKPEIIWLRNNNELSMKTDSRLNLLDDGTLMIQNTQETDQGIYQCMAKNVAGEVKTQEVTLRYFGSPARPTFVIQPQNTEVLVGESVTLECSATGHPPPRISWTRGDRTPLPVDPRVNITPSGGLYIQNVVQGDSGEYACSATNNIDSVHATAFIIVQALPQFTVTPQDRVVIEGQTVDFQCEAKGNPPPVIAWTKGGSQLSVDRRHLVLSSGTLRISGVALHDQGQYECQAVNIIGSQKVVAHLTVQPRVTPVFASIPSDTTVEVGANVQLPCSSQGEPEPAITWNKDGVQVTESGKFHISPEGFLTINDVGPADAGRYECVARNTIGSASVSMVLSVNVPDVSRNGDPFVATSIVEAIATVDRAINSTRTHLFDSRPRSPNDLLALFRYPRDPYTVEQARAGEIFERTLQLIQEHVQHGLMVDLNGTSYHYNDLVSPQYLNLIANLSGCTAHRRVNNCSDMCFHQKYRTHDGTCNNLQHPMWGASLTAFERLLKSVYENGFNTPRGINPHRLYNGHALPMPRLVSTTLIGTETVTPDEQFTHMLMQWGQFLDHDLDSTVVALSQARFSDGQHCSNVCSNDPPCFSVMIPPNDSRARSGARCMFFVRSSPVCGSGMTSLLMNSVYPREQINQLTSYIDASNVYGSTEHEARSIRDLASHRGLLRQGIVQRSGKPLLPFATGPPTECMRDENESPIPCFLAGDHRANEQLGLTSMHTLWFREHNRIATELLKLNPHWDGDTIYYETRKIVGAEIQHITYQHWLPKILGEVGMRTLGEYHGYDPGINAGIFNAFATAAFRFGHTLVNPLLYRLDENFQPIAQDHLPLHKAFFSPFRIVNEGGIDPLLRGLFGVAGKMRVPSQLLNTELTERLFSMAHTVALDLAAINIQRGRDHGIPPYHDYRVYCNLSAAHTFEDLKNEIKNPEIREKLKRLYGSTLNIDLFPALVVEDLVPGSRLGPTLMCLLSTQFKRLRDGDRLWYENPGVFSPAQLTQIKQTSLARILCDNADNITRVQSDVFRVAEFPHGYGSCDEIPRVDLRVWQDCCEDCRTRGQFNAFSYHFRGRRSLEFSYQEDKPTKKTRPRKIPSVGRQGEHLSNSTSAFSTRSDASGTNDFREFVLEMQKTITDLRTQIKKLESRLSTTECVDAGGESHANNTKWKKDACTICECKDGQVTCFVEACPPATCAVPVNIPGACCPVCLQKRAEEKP

For `Br` [bromide], the EC50 (human peroxidasin [1]) was 2700 nM, the “S═N bond formation on Br addition to Br-Free PBS” value (human peroxidasin [2]) was “recued the degree of S═N bond formation observed in reagent-grade PBS” and the “Generation 2 larval survival” value [3] was “rescued”. The “developmental progression of PxnF07229 larvae” value [3] was “unable to promote developmental progression”, the “median time to eclosion” value [3] was 10 days and the “median time to pupariation” value [3] was 6 days.

Reference: patent US10183039B2, “Methods for the production of collagen IV” (Vanderbilt University, priority 2013, dated 2019)
